Laboratory results from patent US20110070270A1, “IMMUNOSTIMULATING AGENT” (priority 2008, published 2011).

Experiments:
mouse spleen cells [1] = assay: IgA production upon LPS stimulation of mouse spleen cells (ELISA of culture supernatant); format: cell-based; conditions: for IgA concentration (amount of IgA production), mean: BALB/c mouse spleen cells, 5 days culture, supernatant; for Ability to promote IgA production upon LPS stimulation: mouse spleen cells, Student's t test, significance level 5%
Description: (§1) BALB mice (female) of 6 to 8 weeks old were purchased and fed for 1 week for habituation. A commercially available solid feed was used as a feed and tap water was used as water. In order to evaluate influences of cinacalcet and γ-glutamylvaline on antibody producing activity, a culture system using mouse spleen cells was employed. The spleen was collected from BALB-c mice (n=3). The collected spleen cells were washed and thereafter suspended in an RPMI1640 medium (10% FCS, 50 U/ml penicillin, and 50 μg/ml streptomycin). To cells adjusted to 1×10^6 per a 48 well culture plate, cinacalcet or γ-glutamylvaline (dissolved in a sterilized phosphate buffer), or a phosphate buffer as a control was added. And the cells were then stimulated with 5 μg of LPS (lipopolysaccharide, obtained from Sigma). Thereafter, the cells were cultured in a CO2 incubator at 37° C. for 5 days and the amount of IgA antibody in the supernatant was analyzed.
(§2) The amounts of IgA and IgG were measured by the ELISA method. The method for measuring IgG is shown below. 100 μl of rat anti-mouse IgG antibody (Calbiochem, 1 μg/ml in 50 mM sodium carbonate buffer, pH 8.5) solution was added to a 96 well ELISA plate and the plate was incubated at 4° C. overnight to coat each well with the anti-mouse IgG antibody. The plate was washed three times with PBST (phosphate buffered saline, 0.05% Tween 20) and subjected to a blocking treatment with 200 μl of PBS solution containing 2% BSA at 37° C. for 1 hr.
(§3) The plate was washed three times with PBST. Thereafter, 100 μl of the culture supernatant (9 fold diluted with PBST containing 1% BSA) was added and allowed to react at 37° C. for 2 hr. The plate was again washed four times with PBST. 100 μl of an alkaline phosphatase-conjugated anti-mouse IgG (rabbit) (BD Biosciences) solution diluted 2000 fold with PBST containing 1% BSA was added and allowed to react at 37° C. for 1 hour. The plate was washed six times and then colored with p-nitrophenyl phosphate. The reaction was terminated with 100 μl/well of 3 M NaOH and the absorbance at 405 nm was measured.
The measurement of IgA was carried out in accordance with the method for IgG except that a rat anti-mouse IgA antibody (BD Biosciences) was used as the immobilized antibody, a biotinylated anti-mouse IgA antibody (rat) (BD Biosciences) was used as the labeled antibody, 3,3′,5,5′-tetramethylbenzidine solution (TMB substrate-developing solution, Sigma) was used as the chromogenic substrate, termination of the coloring was carried out using 1 M sulfuric acid, and the absorbance at 450 nm was measured.
(§4) A statistical analysis was carried out by Student's t test and a significance level of 5% or less was considered as significant difference.

mouse spleen cells [2] = assay: IgG production upon ConA stimulation of mouse spleen cells (ELISA of culture supernatant); format: cell-based; conditions: for IgG concentration (amount of IgG production), mean: BALB/c mouse spleen cells, 5 days culture, supernatant; for Ability to promote IgG production upon ConA stimulation: mouse spleen cells, Student's t test, significance level 5%
Description: as §1
In the same manner, the cells adjusted to 1×10^6 per a 48 well culture plate were, in the presence or absence of cinacalcet or γ-glutamylvaline, stimulated with 0.5 μg of ConA (concanavalin A). Thereafter, the cells were cultured in a CO2 incubator at 37° C. for 5 days and the amount of IgG antibody in the supernatant was analyzed.
as §2, §3, §4

Row | Compound | IgA concentration (amount of IgA production), mean (mouse spleen cells [1]; LPS stimulation + test substance 0.1 μM) [ng/mL] | Ability to promote IgA production upon LPS stimulation (mouse spleen cells [1]) | IgG concentration (amount of IgG production), mean (mouse spleen cells [2]; ConA stimulation + test substance 0.1 μM) [ng/mL] | Ability to promote IgG production upon ConA stimulation (mouse spleen cells [2]) | IgA concentration (amount of IgA production), mean (mouse spleen cells [1]; LPS stimulation + test substance 0.1 mM) [ng/mL] | IgG concentration (amount of IgG production), mean (mouse spleen cells [2]; ConA stimulation + test substance 0.1 mM) [ng/mL]
1 | C[C@@H](NCCCc1cccc(C(F)(F)F)c1)c1cccc2ccccc12 [Cinacalcet, (R)—N-(3-(3-(trifluoromethyl)phenyl)propyl)-1-(1-naphthyl)ethylamine] | 26.09 | significantly confirmed | 55.24 | significantly confirmed |  | 
2 | CC(C)[C@H](NC(=O)CC[C@H](N)C(=O)O)C(=O)O [γ-GluVal, γ-glutamylvaline] |  | significantly confirmed |  | significantly confirmed | 25.28 | 62.78
